Entries after “also recorded” stand apart in the source; their conditions may differ. Where two headings read alike, the source gives them in different places.
Columns and labels:
[1] = tested on: Ebola VLP; assay type: cell-based, Ebola virus
[2] = tested on: fibroblasts; assay type: cell-based
[3] = target: recombinant cathepsin L (Homo sapiens, UniProt P07711); assay: Cathepsin L assay; assay type: biochemical; details: 10 μM and dose-response
[4] = target: recombinant cathepsin B (Homo sapiens, UniProt P07858); assay: Cathepsin B assay; assay type: biochemical; details: 10 μM and dose-response
[5] = tested on: NPC1 protein; assay type: cell-based
[6] = tested on: EBOV; details: cited from earlier work
[7] = read-out: IC50 of previously reported EBOV inhibitors in vitro

recombinant cathepsin L, sequence (P07711 114-333): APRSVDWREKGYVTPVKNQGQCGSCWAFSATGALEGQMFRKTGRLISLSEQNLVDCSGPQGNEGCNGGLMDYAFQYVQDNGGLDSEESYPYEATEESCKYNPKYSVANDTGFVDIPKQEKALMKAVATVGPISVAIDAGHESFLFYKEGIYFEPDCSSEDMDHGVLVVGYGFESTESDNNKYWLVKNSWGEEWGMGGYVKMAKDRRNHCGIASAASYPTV

SMILES | LysoTracker staining (enlargement of lysosome size) [2] | also measured
COc1cc2nc(N3CCCN(C)CC3)nc(NC3CCN(Cc4ccccc4)CC3)c2cc1OC [BIX-01294] | increased LysoTracker staining | Potency [1]: nanomolar range; also recorded: sub-micromolar
COc1cc2c(Oc3ccc4[nH]c(C)cc4c3F)ncnc2cc1OCCCN1CCCC1 [Cediranib] | increased LysoTracker staining | 
CN1[C@@H]2CC[C@H]1C[C@@H](OC1c3ccccc3CCc3ccccc31)C2 [Deptropine] | increased LysoTracker staining | Inhibition of enzymatic activity of cathepsin L [3]: inhibited; also recorded: blocking cathepsin L activity
CC(C)(C)c1ccc(C(=O)CCCN2CCC(OC(c3ccccc3)c3ccccc3)CC2)cc1 [Ebastine] | increased LysoTracker staining | 
CN(C)c1ccccc1CN1CCCN(Cc2ccccc2N(C)C)C1c1ccncc1 [GANT61] | increased LysoTracker staining; also recorded: caused enlargement of lysosomes | Inhibition of enzymatic activity of cathepsin L [3]: inhibited; Inhibition of enzymatic activity of cathepsin B [4]: inhibited
CC(=O)N(C)C1(c2ccccc2)CCN(CCC[C@]2(c3ccc(Cl)c(Cl)c3)CCCN(C(=O)c3ccccc3)C2)CC1 [Osanetant] | increased LysoTracker staining; also recorded: induces the enlargement of lysosomes | 
COc1ccc2cc1Oc1ccc(cc1)C[C@H]1c3cc(c(OC)cc3CCN1C)Oc1c(OC)c(OC)cc3c1[C@H](C2)N(C)CC3 [Tetrandrine] | increased LysoTracker staining | 
CCN(CC)CCO[C@H]1CC[C@@]2(C)C(=CC[C@@H]3[C@@H]2CC[C@]2(C)C(=O)CC[C@@H]32)C1.Cl [U18666A, 3-β-(2-[diethylamino]ethoxy)-androst-5-en-17-one, monohydrochloride] | increased LysoTracker staining | Cholesterol accumulation (filipin staining), impairment of NPC1 protein function [5]: increased filipin staining
CC[C@]1(O)C[C@@H]2CN(CCc3c([nH]c4ccccc34)[C@@](C(=O)OC)(c3cc4c(cc3OC)N(C)[C@H]3[C@@](O)(C(=O)OC)[C@H](OC(C)=O)[C@]5(CC)C=CCN6CC[C@]43[C@@H]65)C2)C1 [Vinblastine] |  | IC50 ([6]; read-out: Published Compound (IC50)): 48 nM
CC[C@]1(O)C[C@@H]2CN(CCc3c([nH]c4ccccc34)[C@@](C(=O)OC)(c3cc4c(cc3OC)N(C)[C@H]3[C@@](O)(C(N)=O)[C@H](O)[C@]5(CC)C=CCN6CC[C@]43[C@@H]65)C2)C1 [Vindesine] |  | Potency [1]: nanomolar range
Cc1ccc(CN2CCCN(C)C3(CCN(C)CC3)C2)cc1C [ZINC67869167] | increased LysoTracker staining; also recorded: induced enlargement of lysosomes | 
Cc1[nH]c2c(CN3CC(CO)C(CN4CCCC4)C3)cccc2c1C (centres unmarked) [ZINC91973695] | increased LysoTracker staining; also recorded: induced enlargement of lysosomes | 
Cc1cn(-c2cc(NC(=O)c3ccc(C)c(Nc4nccc(-c5cccnc5)n4)c3)cc(C(F)(F)F)c2)cn1 [nilotinib] |  | IC50 [6, 7]: 24300 nM
COC(=O)Nc1nc2ccc(C(=O)c3cccs3)cc2[nH]1 [nocodazole] |  | IC50 of previously reported EBOV inhibitors in vitro [6]: sub-micromolar
CCN(CC)CCNC(=O)c1c(C)[nH]c(/C=C2\C(=O)Nc3ccc(F)cc32)c1C [sunitinib] |  | IC50 [6, 7]: 1910 nM

Source: article PMC6548547 (Journal of medicinal chemistry, 2018)
